Assay results from US20220241316A1, “25-HYDROXYCHOLESTEROL (25HC), CRYAB AGGREGATION INHIBITOR, IS A NOVEL SENOLYTIC” (Buck Institute for Research on Aging, priority 2019, published 2022).
“Also recorded” adds a separate entry of the source.

Columns and labels:
[1] = system: CRYAB mRNA; experiment: qPCR of CRYAB mRNA in Doxo treated FAPs; assay type: cell-based, mouse; settings: 250 nM doxorubicin 24 hrs; normalized to β-actin, vs DMSO
Description: The cells were treated with 250 nM doxorubicin and incubated for 24 hrs (Day 0). The mRNA was extracted from DMSO treated NS or Doxo treated SEN FAPs at the indicated time points and quantified by qPCR. The amount of mRNA was normalized to the level of β-actin mRNA. The average value of DMSO is expressed as 1 (Mean+/−SE, n=3, **p<0.01 and ***p<0.001 by Dunnett's multiple comparisons test vs DMSO).

[2] = system: p16INK4a mRNA; experiment: qPCR of p16INK4a mRNA in Doxo treated FAPs; assay type: cell-based, mouse; settings: 250 nM Doxo for 24 hours; normalized to β-actin, vs DMSO
Description: As shown, FAPs undergo senescence upon 250 nM of Doxo treatment for 24 hours (Day 0). The mRNA was extracted from DMSO treated NS or Doxo treated SEN FAPs at indicated time points and quantified by qPCR. The amount of mRNA was normalized to the level of β-actin. The graphs show the relative levels of p16INK4a mRNA for DMSO and Doxo treated samples. The average value of DMSO is expressed as 1 (Mean+/−SE, n=3, *p<0.05 by Dunnett's multiple comparisons test vs DMSO).

[3] = system: CRYAB mRNA; experiment: qPCR of CRYAB mRNA in Doxo treated mDFs; assay type: cell-based, mouse; settings: Doxo treated SEN mDFs day 1, 5, 14; normalized to β-actin, vs DMSO
Description: (§1) Real-time quantitative PCR (qPCR) was performed on RNA samples isolated from DMSO treated NS mDF cells or Doxo treated SEN mDF cells at day 1, 5, and 14 after Doxo treatment. The amount of mRNA was normalized to the level of β-actin (see, e.g., Demaria et al. (2017) Cancer Discovery, 2: 165-176; and references cited therein). Relative levels of CRYAB mRNA for DMSO and Doxo treated mDFs was measured. The average value of DMSO is expressed as 1. (Mean+/−SE, n=4, *p<0.05, ***p<0.001 by Dunnett's multiple comparisons test vs DMSO).

[4] = system: p16INK4a mRNA; experiment: qPCR of p16INK4a mRNA in Doxo treated mDFs; assay type: cell-based, mouse; settings: 250 nM Doxo for 24 hours; day 1, 5, 14; normalized to β-actin, vs DMSO
Description: as §1, with “As shown, mDFs undergo senescence upon 250 nM of Doxo treatment for 24 hours (Day 0). Real-time” for “Real-time”, “NS (Non-Senescent)” for “NS”, “SEN (Senescent)” for “SEN”, “p16INK4a” for “CRYAB”, “**p<0.01, ****p<0.0001” for “*p<0.05, ***p<0.001”

[5] = molecular target: T1, CRYAB protein (Homo sapiens, UniProt P02511); experiment: Inhibition of CRYAB protein aggregation; settings: stated with reference to Example 1; no aggregation test described
T1 sequence (P02511 1-175): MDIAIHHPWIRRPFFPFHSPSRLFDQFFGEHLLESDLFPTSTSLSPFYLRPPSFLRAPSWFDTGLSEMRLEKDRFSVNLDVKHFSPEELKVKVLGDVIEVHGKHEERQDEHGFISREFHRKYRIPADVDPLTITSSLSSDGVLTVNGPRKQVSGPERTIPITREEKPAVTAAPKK

[6] = system: senescent cells; experiment: Evaluation of senolytic effects of 25HC, oxysterols and 25HC analogs in cell culture; assay type: cell-based; settings: cell type not stated
Text: Genetic knockdown of this gene kills senescent cells.
There are some commercially available analogs of 25HC such as oxysterols (Griffiths et al. (2019) Biochem Soc Trans., 47: 517-526).

[7] = system: senescent human fetal lung fibroblast (IMR-90); experiment: Cell viability assay (Cell Counting Kit-8) on NS and SEN IMR-90 cells; assay type: cell-based; settings: treatment started immediately after removing DMSO/250 nM Doxo; 72 hrs; normalized to DMSO
Description: Panel A) Timeline for DMSO/250 nM Doxo treatment and early-time point timeline for 24(S)-HC and 27HC treatment on NS and SEN cells. 24(S)HC and 27HC treatment were started immediately after removing DMSO/Doxo. Panel B) and C) Cell viability assay were performed on NS and SEN cells treated with different concentrations of 24(S)HC and 27HC, respectively. 24(S)HC and 27HC treatment were done for 72 hrs. The cell viability was analyzed by Cell Counting Kit-8 according to the manufactures' protocol using Spectra Max 190 (Molecular Devices). The value was normalized to that of DMSO. (Mean+/−SE, n=3, *p<0.05, **p<0.01 and ***p<0.001 by student's t-test).

Row | SMILES | Inhibition of CRYAB protein aggregation (as asserted in the description) [5] | Senolytic effect [6] | also measured
1 | COc1cccc2c1C(=O)c1c(O)c3c(c(O)c1C2=O)C[C@@](O)(C(=O)CO)C[C@@H]3O[C@H]1C[C@H](N)[C@H](O)[C@H](C)O1 [Doxo, doxorubicin] |  |  | Relative level of CRYAB mRNA in FAPs [1]: significantly increased; Relative level of p16INK4a mRNA in FAPs [2]: induced senescence; Relative level of CRYAB mRNA in mDFs [3]: upregulated CRYAB; Relative level of p16INK4a mRNA in mDFs [4]: induces senescence marker, p16INK4a
2 | C[C@@H](CCCC(C)(O)c1ccccc1)C1CCC2C3CC=C4C[C@H](O)CC[C@@]4(C)C3CC[C@]21C (relative stereo) [rel-(3R,10S,13S)-17-[(2S)-6-hydroxy-6-phenylheptan-2-yl]-10,13-dimethyl-2,3,4,7,8,9,10,11,12,13,14,15,16,17-tetradecahydro-1H-cyclopenta[a]phenanthren-3-ol] | effective inhibitors of CRYAB protein aggregation | novel senolytics | 
3 | C[C@H](CCCC(C)(C)O)[C@H]1CC[C@H]2[C@@H]3[C@H](O)C=C4C[C@@H](O)CC[C@]4(C)[C@H]3CC[C@]12C [7α,25-Dihydroxycholesterol] | effective inhibitors of CRYAB protein aggregation | novel senolytics | 
4 | CC(CCCN(C)C)C1CCC2C3CC=C4C[C@@H](O)CC[C@]4(C)C3CC[C@]12C (stereo partly drawn) [(3S,10R,13R)-17-(5-(dimethylamino)pentan-2-yl)-10,13-dimethyl-2,3,4,7,8,9,10,11,12,13,14,15,16,17-tetradecahydro-1H-cyclopenta[a]phenanthren-3-ol] | effective inhibitors of CRYAB protein aggregation | novel senolytics | 
5 | CC(C)[C@@H](O)CC[C@@H](C)[C@H]1CC[C@H]2[C@@H]3CC=C4C[C@@H](O)CC[C@]4(C)[C@H]3CC[C@]12C [24(S)HC, 24(S)-Hydroxycholesterol] | effective inhibitor of CRYAB protein aggregation | novel senolytics | Cell viability of NS and SEN IMR-90 cells, early-time point [7]: specifically kill senescent human fetal lung fibroblast; also recorded: specifically kill senescent IMR-90 cells
6 | CC(C)CC[C@@H](O)[C@@H](C)[C@H]1CC[C@H]2[C@@H]3CC=C4C[C@@H](O)CC[C@]4(C)[C@H]3CC[C@]12C [22(R)HC, 22(R)-Hydroxycholesterol] | effective inhibitors of CRYAB protein aggregation | novel senolytics | 
7 | CC(C)CCC[C@@H](C)[C@H]1CC[C@H]2[C@@H]3[C@@H](O)C=C4C[C@@H](O)CC[C@]4(C)[C@H]3CC[C@]12C [7βHC, 7β-Hydroxycholesterol] | effective inhibitors of CRYAB protein aggregation | novel senolytics | 
8 | C[C@H](CCC(=O)O)[C@H]1CCC2[C@@H]3CC=C4C[C@H](O)CC[C@]4(C)C3CC[C@@]21C (stereo partly drawn) [(3alpha,9xi,14xi)-3-hydroxychol-5-en-24-oic acid] | effective inhibitors of CRYAB protein aggregation | novel senolytics | 
9 | CC(C)CCC[C@@H](C)[C@H]1CC[C@H]2[C@@H]3[C@H](O)C=C4C[C@@H](O)CC[C@]4(C)[C@H]3CC[C@]12C [7αHC, 7α-Hydroxycholesterol] | effective inhibitors of CRYAB protein aggregation | novel senolytics | 
10 | C[C@@H](CO)CCC[C@@H](C)[C@H]1CC[C@H]2[C@@H]3CC=C4C[C@@H](O)CC[C@]4(C)[C@H]3CC[C@]12C [27HC, 27-Hydroxycholesterol] | effective inhibitor of CRYAB protein aggregation | novel senolytics | Cell viability of NS and SEN IMR-90 cells, early-time point [7]: specifically kill senescent human fetal lung fibroblast; also recorded: specifically kill senescent IMR-90 cells
11 | C=C1CC[C@@H](O)CC1=C/C=C1\CCC[C@]2(C)[C@@H]([C@H](C)CCCC(C)(C)O)CC[C@@H]12 [Calcifediol 25-Hydroxyvitamin D3, reference compound] | effective inhibitors of CRYAB protein aggregation | novel senolytics | 
12 | CC(=O)CCC[C@@H](C)[C@H]1CC[C@H]2[C@@H]3CC=C4C[C@@H](O)CC[C@]4(C)[C@H]3CC[C@]12C [27-Nor-25-ketocholesterol] | effective inhibitors of CRYAB protein aggregation | novel senolytics | 
